Results: ChEMBL document CHEMBL2448809, “UCSF DeRisi Lab MMV Box Apicoplast Screening”

System: Plasmodium falciparum
Experiment: MMV: Compounds (1uM) were screened in a 72hr growth assay monitored by flow cytometry both in the presence and absence of supplemental isopentenyl pyrophosphate (IPP) 200uM. Compounds which fail to show anti-malarial activity when chemically rescued by IPP are therefore specific to the apicoplast. The values are expressed as the ratio of the corresponding activity with and without IPP, respectively.
Format: functional, W2

Row | SMILES | Ratio
1 | O=C(Nc1ccc(-c2nc3ccccc3[nH]2)cc1)c1ccc(Cl)c(Cl)c1 | 0.9295
2 | COc1ccc(C2C(C(=O)Nc3cccc(OC)c3)c3ccccc3C(=O)N2C2CCCCC2)cc1 (stereo unspecified) | 0.7969
3 | COc1ccc(N2CCN(C(CNC(=O)C3CCCCC3)c3ccc4c(c3)OCO4)CC2)cc1 (stereo unspecified) | 0.9206
4 | CCN(Cc1ccccc1)C1CCN(Cc2cc(Br)ccc2O)CC1.O=C(O)C(=O)O | 0.9701
5 | COCCNCC(O)Cn1c2ccc(Cl)cc2c2cc(Cl)ccc21 (stereo unspecified) | 0.88
6 | COc1cc(-c2nc(-c3ccccc3)c(-c3ccccc3)[nH]2)cc(OC)c1O | 1.031
7 | COc1ccc(CNC(=O)c2cc3c(=O)n4ccccc4nc3n(CCc3ccccc3)c2=N)cc1 | 0.8046
8 | CCN(CC)CCNc1ccnc2cc3ccccc3cc12.O=P(O)(O)O | 1.056
9 | Br.Cc1ccc(C)c(-c2csc(Nc3ccc(C)c(C)c3)n2)c1 | 1.048
10 | Cc1ccccc1OCCSc1nc2ccc(NC(=O)c3cccs3)cc2s1 | 0.9467
11 | COc1ccc(CN2CCN(Cc3ccccc3)CC2)c(O)c1 | 1.283
12 | Cc1ccc(N2C3c4ccccc4N(S(=O)(=O)c4ccc(C)cc4)C2c2ccccc2N3S(=O)(=O)c2ccc(C)cc2)cc1 | 0.3473
13 | CCCOCc1cc(CN2CCN(c3cccc(Cl)c3)CC2)c(O)c2ncccc12 | 0.9844
14 | Cc1sc(NC(=O)c2ccccc2)c(C(c2cccs2)N2CCN(c3ccccc3)CC2)c1C (stereo unspecified) | 0.9412
15 | CC(NCc1ccccc1)c1cc(Cl)ccc1O (stereo unspecified) | 0.6957
16 | COc1ccc(C)c2sc(N(Cc3cccnc3)C(=O)c3ccc(C#N)cc3)nc12 | 0.971
17 | Cc1cc(NC(=O)c2ccc(-c3ccccc3)cc2)no1 | 0.9841
18 | CCc1ccc(CNCC(O)c2ccccc2)cc1.Cl (stereo unspecified) | 1.061
19 | CCOc1ccc(-c2nc(NC(=O)c3cccc(S(C)(=O)=O)c3)sc2C)cc1 | 0.4367
20 | CCOC(=O)C1=C(C)N=c2sc(=Cc3cc(Cl)ccc3O)c(=O)n2C1c1ccc(OC)cc1 (stereo unspecified) | 1.255
21 | OC(CNCC1CCCO1)Cn1c2ccc(Cl)cc2c2cc(Cl)ccc21 (stereo unspecified) | 0.8732

Row | SMILES | Ratio
22 | CCC(O)c1ccc(Br)cc1NC(=O)c1cccc(Cl)c1 (stereo unspecified) | 1
23 | O=C(NC1CCCCC1)C(c1cccs1)N(CCc1ccccc1)C(=O)c1ccco1 (stereo unspecified) | 0.9135
24 | CC(C)OCc1cc(CN2CCN(c3cccc(Cl)c3)CC2)c(O)c2ncccc12 | 1.015
25 | Cc1ccc(-c2cc3c(nn2)-c2ccccc2C3=O)cc1 | 0.7253
26 | O=C(NCC(c1ccsc1)N1CCCCCC1)c1ccc(C(F)(F)F)cc1 (stereo unspecified) | 0.9077
27 | CN1CCN(c2nc(Nc3ccc(O)cc3)nc3ccccc23)CC1.Cl | 0.8636
28 | CCOc1cc2c(cc1OCC)C(c1cc(OC)c(O)cc1Cl)NCC2 (stereo unspecified) | 0.9254
29 | COc1ccc2nc(C)cc(Nc3ccccc3O)c2c1 | 0.7711
30 | O=C(Nc1ccc(-c2nc3cc(NC(=O)c4ccc(Cl)cc4)ccc3[nH]2)cc1)c1ccc(Cl)cc1 | 0.9036
31 | Cl.c1ccc2c(NCCCCCCNc3c4c(nc5ccccc35)CCCC4)c3c(nc2c1)CCCC3 | 1.108
32 | COc1cccc(Nc2nc(N)c3ccccc3n2)c1.Cl | 0.9815
33 | COc1ccc(C(=O)C(CCC(CNC(C)(C)C)C(=O)c2ccc(OC)cc2)CNC(C)(C)C)cc1 (stereo unspecified) | 0.9453
34 | CCCCCCn1c(=N)n(CC(O)COc2cccc(C)c2)c2ccccc21.Cl (stereo unspecified) | 0.9831
35 | Cl.Cn1c(=O)n(C)c2cc(CNCCNc3ccnc4cc(Cl)ccc34)ccc21 | 1.09
36 | FC(F)(F)c1cccc(Nc2nc(-c3ccccc3)nc3ncccc23)c1 | 0.7857
37 | Oc1c2c(nc3cc(-c4ccccc4)nn13)CCCC2 | 0.8046
38 | CCCC(c1nnnn1C1CCCCC1)N1CCN(C(=O)c2ccco2)CC1.Cl (stereo unspecified) | 1.023
39 | CN1c2ccccc2N(C)C1c1ccc2c(c1)OCO2 | 0.7561
40 | COc1ccc(Nc2cc(C)nc(NCc3ccccc3)n2)cc1 | 0.7294
41 | Oc1c(CN2CCN(c3ccccc3F)CC2)cc(Br)c2cccnc12 | 0.8919
42 | Oc1ccc2ccccc2c1CNc1nc2ccccc2[nH]1 | 0.578

Row | SMILES | Ratio
43 | CCOC(=O)c1cn(CC)c2cc(N3CCCCC3)c(F)cc2c1=O | 0.6824
44 | Cc1c(C)n(Cc2ccc(F)cc2)c2ccc(C(=O)NCc3ccco3)cc12 | 1.212
45 | O=C(NC1CCN(Cc2ccccc2)CC1)c1cc(-c2ccncc2)nc2ccc(Cl)cc12 | 0.7749
46 | CCOc1cc2c(cc1OCC)C(c1cc(C)c(O)c(C)c1)NCC2.Cl (stereo unspecified) | 1.148
47 | O=C(Nc1ccc(Cl)cc1C(=O)Nc1ccncc1)c1ccc(Cl)cc1Cl | 0.7485
48 | CCOc1c(Br)cc(C2C(C(=O)OC)=CN(C)C=C2C(=O)OC)cc1OC | 1.02
49 | O=C(O)C(=O)O.Oc1ccc(Br)cc1CN1CCN(Cc2cccc(F)c2)CC1 | 0.8333
50 | Cc1ccc(OCCCCCCNCCO)c(C)c1 | 0.8556
51 | Cc1cc(Nc2ccc(C)c(Cl)c2)n2nc(C(F)(F)F)nc2n1 | 0.6628
52 | COc1ccc(CCn2c(=N)c(C(=O)NCc3cccnc3)cc3c(=O)n4cccc(C)c4nc32)cc1 | 0.875
53 | COc1cc2cc(C(=O)Nc3ccccc3)c(N)nc2cc1OC | 1.031
54 | COc1ccc(-c2cc3c(SCC(=O)Nc4cc(C(F)(F)F)ccc4Cl)nccn3n2)cc1 | 0.9714
55 | COc1ccc(C(=O)C2CC2c2ccc(Cl)cc2)cc1 (stereo unspecified) | 1.308
56 | COc1ccc(N2CCN(C(CNC(=O)CC(C)(C)C)c3ccc4c(c3)OCO4)CC2)cc1 (stereo unspecified) | 0.8841
57 | CCCCOc1ccc(C(=O)Nc2cc(C)on2)cc1 | 0.9875
58 | CCCCNc1nc(NC(C)(C)C)nc(NC(C)(C)C)n1 | 1.02
59 | Cc1ccc(-c2cc3c(SCC(=O)Nc4cc(C(F)(F)F)ccc4Cl)nccn3n2)cc1 | 0.9375
60 | CCN(CC)c1cc(C)c2cc(NC(=O)c3cccc(OC)c3)ccc2n1 | 1.095
61 | OC(Cn1nnc2ccccc21)Cn1c2ccc(Br)cc2c2cc(Br)ccc21 (stereo unspecified) | 0.9531
62 | CCC(=O)Nc1nnc(Cc2ccc(OC)c(OC)c2)s1 | 0.7213
63 | COC(=O)c1ccc(Cl)c2c1C1C=CCC1C(c1cccc3ccccc13)N2 (stereo unspecified) | 1.081

Row | SMILES | Ratio
64 | CCOc1ccc(-c2nonc2NC(=O)c2cccc(C)c2)cc1OCC | 0.6977
65 | CN(C)CCCNc1c2ccccc2nc2ccccc12 | 0.7564
66 | c1ccc2cc3c(Nc4ccc(N5CCOCC5)cc4)ccnc3cc2c1 | 0.7931
67 | Cc1cc(NC(=O)C2c3ccccc3C(=O)N(CC(C)C)C2c2cccs2)no1 (stereo unspecified) | 0.791
68 | Cc1ccc(NC(=O)Nc2cccc(Cl)c2)cc1F | 0.9455
69 | Br.CCn1c2c(c(=N)c3c1CCC3)CCCC2 | 0.8374
70 | CCN(CC)c1ccc(NC(=O)c2cccs2)cc1 | 1
71 | CCOc1cc(Br)c(C(C)NC(=O)c2cccc(OC)c2)cc1OCC (stereo unspecified) | 0.791
72 | c1ccc(-c2ccc(-c3nc4ccccc4[nH]3)cc2)cc1 | 1.5
73 | CCCc1cc(O)c2c3c(c(=O)oc2c1)CN(C)CC3 | 0.8028
74 | OC(CNC1CCCCC1)Cn1c2ccccc2c2ccccc21 (stereo unspecified) | 1.115
75 | Cl.N=c1n(CCN2CCCCC2)c2ccccc2n1CC(O)c1cccc(Br)c1 (stereo unspecified) | 0.8955
76 | C=C(C)CCC(C)N1CCC(N2CCC(C(=O)NCCc3ccccc3)CC2)CC1 (stereo unspecified) | 0.756
77 | COc1ccc(C2N(C)c3ccccc3N2C)cc1 | 0.8737
78 | O=C(NCC1Cc2cccc(-c3ccncc3)c2O1)c1csc2c1CCCC2 (stereo unspecified) | 0.6487
79 | COc1cc(C(=O)Nc2nc3c(cc4c5c(cccc53)CC4)s2)cc(OC)c1OC | 0.8259
80 | Nc1ccc(-c2nc3cc(Oc4ccc(Oc5ccc6[nH]c(-c7ccc(N)cc7)nc6c5)cc4)ccc3[nH]2)cc1 | 1.143
81 | Cc1cc(C=C2SC(=Nc3ccccc3)N(C3CCCC3)C2=O)c(C)n1-c1ccc(Cl)cc1 | 1.038
